Data from PMC6127216, “The quaternary structure of Thermus thermophilus aldehyde dehydrogenase is stabilized by an evolutionary distinct C-terminal arm extension” (Scientific Reports, 2018).
One block for each molecule: values may come before it.

Tests used:
ALDHTt515 [1] = molecular target: T1, ALDHTt515 (Thermus thermophilus, UniProt Q72KD3); experiment: X-ray crystal structure; conditions: co-crystallised with 1 mM NADP+; cofactor binding cleft
T1 construct: gene TT_C0513; C-terminal truncation lacking the last 15 of 530 residues; tetramer; not the natural 515-residue HB8 enzyme

ALDHTt515 [2] = molecular target: T1, ALDHTt515; experiment: fluorescence of NADH formation; format: biochemical; conditions: 0.4 mM NAD+, 1 mM hexanal, pH 8.0, 50 °C; turnover only
ALDHTt508 = molecular target: T2, ALDHTt508 (Thermus thermophilus, UniProt Q72KD3); experiment: fluorescence of NADH formation; format: biochemical; conditions: 0.4 mM NAD+, 1 mM hexanal, pH 8.0, 50 °C; turnover only
T2 construct: gene TT_C0513; C-terminal truncation after residue 508 of 530; tetramer

[3] = molecular target: T3, ALDHTt530 (recombinant wild type ALDHTt) (Thermus thermophilus, UniProt Q72KD3); experiment: X-ray crystal structure; format: binding; conditions: crystals with 50 mM propanal; substrate entry channel, anchor loop
T3 construct: gene TT_C0513; full length, 530 residues; homotetramer; 6FJX is the native protein
T3 sequence (Q72KD3 1-530): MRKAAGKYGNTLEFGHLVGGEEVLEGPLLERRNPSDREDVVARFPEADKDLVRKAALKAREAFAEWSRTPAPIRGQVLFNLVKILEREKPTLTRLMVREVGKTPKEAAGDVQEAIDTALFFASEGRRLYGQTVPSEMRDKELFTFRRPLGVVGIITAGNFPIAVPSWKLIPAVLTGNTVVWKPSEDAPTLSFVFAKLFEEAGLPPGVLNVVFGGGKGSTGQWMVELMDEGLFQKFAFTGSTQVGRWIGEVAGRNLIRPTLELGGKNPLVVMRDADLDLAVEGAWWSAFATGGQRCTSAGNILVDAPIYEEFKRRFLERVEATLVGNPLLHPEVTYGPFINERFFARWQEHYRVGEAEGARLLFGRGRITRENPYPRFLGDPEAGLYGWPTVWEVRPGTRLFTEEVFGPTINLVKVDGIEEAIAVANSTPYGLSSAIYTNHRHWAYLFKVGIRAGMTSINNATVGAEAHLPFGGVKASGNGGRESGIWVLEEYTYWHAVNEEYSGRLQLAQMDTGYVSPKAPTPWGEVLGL

[4] = molecular target: native aldehyde dehydrogenase from Thermus thermophilus (ALDHTt native) (Thermus thermophilus); experiment: crystal structure; sitting-drop vapor diffusion at 20 °C against 50 mM MOPS pH 7.5 and 1.2 M ammonium sulfate; space group P4(1)2(1)2, two copies in the asymmetric unit, tetramer by NCS and crystallographic symmetry; recombinant proteins in the same conditions (ALDHTt515 with 1 mM NADP+, ALDHTt530 with 50 mM propanal)
[5] = substrate: CCC=O; experiment: fluorescence of NADH formation; format: biochemical, Thermus thermophilus; conditions: 25 °C, NAD+ as cofactor, pH 8.0 (standard assay)

Molecule: NC(=O)c1ccc[n+]([C@@H]2O[C@H](COP(=O)(O)OP(=O)(O)OC[C@H]3O[C@@H](n4cnc5c(N)ncnc54)[C@H](OP(=O)(O)O)[C@@H]3O)[C@@H](O)[C@H]2O)c1 [NADP^+]
X-ray crystal structure (ALDHTt515 [1]): The co-crystal structure of ALDHTt515 was solved with NADP^+ bound

Molecule: NC(=O)c1ccc[n+]([C@@H]2O[C@H](COP(=O)(O)OP(=O)(O)OC[C@H]3O[C@@H](n4cnc5c(N)ncnc54)[C@H](O)[C@@H]3O)[C@@H](O)[C@H]2O)c1 [NAD^+]
fluorescence of NADH formation (ALDHTt515 [2]): both truncated mutants ALDHTt508 and ALDHTt515 were slightly more active
fluorescence of NADH formation (ALDHTt508): both truncated mutants ALDHTt508 and ALDHTt515 were slightly more active

Molecule: CCC(=O)O [propanoic acid]
X-ray crystal structure [3]: yielded a structure with a product molecule, propanoic acid, in monomer A and B

stoichiometry N [4]: 4
Molecule: native aldehyde dehydrogenase from Thermus thermophilus (ALDHTt native) (enzyme)

B1: ALDHTt530 (recombinant wild type ALDHTt) (Thermus thermophilus HB27) (protein)
chain: MRKAAGKYGNTLEFGHLVGGEEVLEGPLLERRNPSDREDVVARFPEADKDLVRKAALKAREAFAEWSRTPAPIRGQVLFNLVKILEREKPTLTRLMVREVGKTPKEAAGDVQEAIDTALFFASEGRRLYGQTVPSEMRDKELFTFRRPLGVVGIITAGNFPIAVPSWKLIPAVLTGNTVVWKPSEDAPTLSFVFAKLFEEAGLPPGVLNVVFGGGKGSTGQWMVELMDEGLFQKFAFTGSTQVGRWIGEVAGRNLIRPTLELGGKNPLVVMRDADLDLAVEGAWWSAFATGGQRCTSAGNILVDAPIYEEFKRRFLERVEATLVGNPLLHPEVTYGPFINERFFARWQEHYRVGEAEGARLLFGRGRITRENPYPRFLGDPEAGLYGWPTVWEVRPGTRLFTEEVFGPTINLVKVDGIEEAIAVANSTPYGLSSAIYTNHRHWAYLFKVGIRAGMTSINNATVGAEAHLPFGGVKASGNGGRESGIWVLEEYTYWHAVNEEYSGRLQLAQMDTGYVSPKAPTPWGEVLGL
notes: full length, 530 residues; homotetramer; 6FJX is the native protein
Km [5]: 2.76 mM
